The source of these data is ChEMBL document CHEMBL1126349, “Synthesis and biological properties of 1069C: a new synthetic antitumour agent with very low cross-resistance potential” (Bioorg Med Chem Lett, 1992).

Where “and” joins values, the source holds several entries; their conditions need not be identical. Equal values may be shown once. Calls of active or inactive are those of the source. The rule behind the calls is not given here.

The target of assay [1] is T1, Tubulin alpha chain (Sus scrofa, UniProt P02550). The assay is described as follows: In vitro mammalian brain tubulin polymerization using standard assay. Type of assay: functional.
In assay [2] the test system is P388. The assay is described as follows: Compound was tested for % increase in life span of vincristine resistant P388 tumor. Type of assay: functional, Mus musculus.
Assay [3] deals with P388. The assay is described as follows: The compound was evaluated in vitro for the inhibition of P388D1 cell colony formation. Type of assay: functional, cell-based. The following applies: Mus musculus.
Assay [4] concerns the target T1, Tubulin alpha chain. The assay is described as follows: Compound was tested for competitive inhibition with radioligand [3H]colchicine at colchicine site of mammalian tubulin.
The target of assay [5] is Tubulin alpha chain (Sus scrofa) (UniProt P02550). The assay is described as follows: Compound was tested for competitive inhibition with radioligand [3H]colchicine or [3H]vinblastine at alkaloid site on mammalian tubulin; No effect.
Assay [6] deals with P388. The assay is described as follows: Compound was tested for % increase in life span of adriamycin resistant P388 tumor. Type of assay: functional, Mus musculus.
For assay [7], the system named is P388. The assay is described as follows: The compound was evaluated in vitro for the inhibition of murine leukemia P388D1 cell proliferation. Type of assay: functional, cell-based. The following applies: Mus musculus.
The subject of assay [8] is P388. The assay is described as follows: Compound was tested for % increase in life span of P388 tumor. Type of assay: functional, Mus musculus.
The subject of assay [9] is P388. The assay is described as follows: The compound was evaluated in vitro for the P388 cell spindle disruption.; 0.006-0.009. The following applies: Mus musculus. Type of assay: functional, cell-based.
The target in assay [10] is T1, Tubulin alpha chain. The assay is described as follows: The compound was evaluated in vitro for the mammalian brain tubulin polymerization using standard assay. Type of assay: functional.
Assay [11] has as its system P388. The assay is described as follows: The compound was evaluated in vitro for the P388 cell spindle disruption.; 0.02-0.04. Type of assay: functional, cell-based. The following applies: Mus musculus.

T1 sequence (P02550 whole entry, looked up): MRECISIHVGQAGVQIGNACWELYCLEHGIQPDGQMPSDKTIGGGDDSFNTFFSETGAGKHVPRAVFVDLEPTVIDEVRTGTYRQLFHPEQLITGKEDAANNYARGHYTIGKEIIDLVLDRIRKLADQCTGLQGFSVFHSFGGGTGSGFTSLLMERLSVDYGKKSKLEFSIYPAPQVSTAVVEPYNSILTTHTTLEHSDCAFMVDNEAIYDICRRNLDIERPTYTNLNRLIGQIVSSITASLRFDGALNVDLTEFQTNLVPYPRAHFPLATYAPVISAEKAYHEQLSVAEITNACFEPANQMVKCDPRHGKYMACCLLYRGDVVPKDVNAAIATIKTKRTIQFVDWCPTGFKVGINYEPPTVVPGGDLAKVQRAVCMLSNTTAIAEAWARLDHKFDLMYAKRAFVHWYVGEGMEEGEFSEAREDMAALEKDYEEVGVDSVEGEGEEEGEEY
Chain of Tubulin alpha chain (Sus scrofa) (P02550 whole entry, looked up): as above

As to `COC(=O)Nc1cn2nc(OCc3cc(OC)c(OC)c(OC)c3)ccc2n1`, the IC50 in assay [1] was found to be 0.31 µM; in [3], 0.013 µM; in assay [7], 0.0089 µM. Besides, the ILS in [2] is around 170%; in assay [6], around 110%; in [8], ~147% and ~120%. In [4], this compound gave a Ki of 0.75 µM. In [5], the outcome was inactive. This compound also returned an EC50 in assay [9] of 0.006 µM.
For the compound `COc1cc2c(c(OC)c1OC)-c1ccc(OC)c(=O)cc1[C@@H](NC(C)=O)CC2` [COLCHICINE], the results for the ILS in assay [2] and in assay [8] were around 75% and around 85%, respectively. Moreover, the IC50 in [3] was 0.071 µM; in assay [7] it was 0.00062 µM.
`COc1cccc2c1C(=O)c1c(O)c3c(c(O)c1C2=O)C[C@@](O)(C(=O)CO)C[C@@H]3O[C@H]1C[C@H](N)[C@H](O)[C@H](C)O1` [DOXORUBICIN]: the ILS in assay [6] is recorded as around 25%; in [8], around 120%.
As for `COc1cc([C@@H]2c3cc4c(cc3[C@@H](O[C@@H]3O[C@@H]5CO[C@@H](C)O[C@H]5[C@H](O)[C@H]3O)[C@H]3COC(=O)[C@H]23)OCO4)cc(OC)c1O` [ETOPOSIDE], the results for the increase in lifespan (ILS) in [6] and in [8] were around 20% and around 80%, respectively.
With `CC[C@]1(O)C[C@@H]2CN(CCc3c([nH]c4ccccc34)[C@@](C(=O)OC)(c3cc4c(cc3OC)N(C)[C@H]3[C@@](O)(C(=O)OC)[C@H](OC(C)=O)[C@]5(CC)C=CCN6CC[C@]43[C@@H]65)C2)C1` [VINBLASTINE], the ILS in [2] was around 50%; in assay [8], around 100%. In addition, the IC50 was 0.0082 µM in assay [3] and 0.0017 µM in assay [7].
In the case of `CC[C@]1(O)C[C@H]2CN(CCc3c([nH]c4ccccc34)[C@@](C(=O)OC)(c3cc4c(cc3OC)N(C=O)[C@H]3[C@@](O)(C(=O)OC)[C@H](OC(C)=O)[C@]5(CC)C=CCN6CC[C@]43[C@@H]65)C2)C1` [VINCRISTINE], the figures for the increase in life span (ILS) in [2], in [6] and in assay [8] were around 10%, around 5% and around 130%, respectively. The values for the half-inhibitory concentration (IC50) in assay [3], in assay [10] and in assay [7] were 0.19 µM, 0.22 µM and 0.0047 µM, respectively. In addition, the EC50 in assay [11] came out at 0.02 µM.
